Measurements from US8114895B2, “Use of bipyridine compound ‘Caerulomycin A’ derivatives and analogs thereof as immunosuppressive agents” (Council of Science and Industrial Research, priority 2005, dated 2012).

Key:
Type in all cases: cell-based
CD4^+ T cells = assay: Proliferation of CD4+ T cells obtained from antigen-primed animals; conditions: CD4+ T cells from OVA-FCA injected mice, stimulated with antigen-pulsed γ-irradiated splenocytes
Procedure: A single cell suspension of mice splenocytes obtained from OVA-CFA primed mice. The red blood cells were depleted by treatment with hemolytic Gey's solution. The adherent cells were removed by plating onto plastic Petri plates for 2 h at 37° C. and 7% CO2. The non-adherent cells were loaded (1×10^6 cells/ml) onto the nylon wool column and incubated for 90 min at 37° C. After the incubation period, warm RPMI was passed into the column to elute T lymphocytes. The T cells were washed with RPMI and incubated with anti-Mac3 (TIB-168), anti-IA^d (MKD6), anti-dendritic cell (TIB-227), anti-IgM and anti-CD8 Abs for 45 min at 4° C. […] The purity of the cells was analyzed by flow-cytometry of the cells stained with anti-CD3 and CD4 Abs. […]
Examples establishing the role of Caerulomycin A [isolated from a novel species of Actinoalloteichus] in inducing immunosuppression based on the following: • Splenocytes of BALB/c mice were stimulated with either ConA (1 μg/ml and 2 μg/ml) or LPS (5 μg/ml and 10 μg/ml) and were cultured with different concentrations of Caerulomycin A (0.0003-0.1 μg/ml). […] Radioactivity incorporated was measured by liquid scintillation counting. • Antigen ovalbumin (100 μg/ml) emulsified in Freund's complete adjuvant was injected in a group consisting of 5 BALB/c mice. […] Radioactivity incorporated was measured by liquid scintillation. […]

Th2 clones = assay: Proliferation of Th2 clones; conditions: stimulated with anti-CD3 Ab or conalbumin pulsed γ-irradiated splenocytes; Caerulomycin A 0.00625-0.1 μg/ml
Procedure: The proliferation of Th2 clones was measured using cells harvested on 7-9 days after stimulation with antigen pulsed splenocytes. The dead cells were removed by ficoll-histopaque. Th2 clones (5×10^4 cells/well) were either stimulated with anti-CD3 Ab (0.1 μg/ml and 0.5 μg/ml) or incubated with γ-irradiated (3000 R) syngeneic splenocytes (5×10^5 cells/well) and conalbumin (100 μg/ml) in 200 μl RPMI/FCS-10% medium and with various concentrations of Caerulomycin A (0.00625-0.1 μg/ml). The control cultures consisting of Th2 cells incubated with conalbumin alone and γ-irradiated syngeneic splenocytes (no antigen) were also kept. The cultures were kept in a flat bottom 96 well microtitre plate and the cells were incubated at 37° C. and 7% CO2. After 48 h, the cultures were pulsed with 0.5 μCi of [^3H]-thymidine and harvested 16 h later. Radioactivity incorporated was measured by liquid scintillation counting and data are expressed as mean counts per minute (cpm).

D10G4.1 Th2 clones = assay: IL-4 release by Th2 clones; conditions: stimulated with anti-CD3 Ab (0.1 and 0.5 μg/ml) or conalbumin pulsed APC
J774 = assay: Expression of B7-1 and B7-2 on J774

SMILES: COc1cc(/C=N/O)nc(-c2ccccn2)c1 [Caerulomycin A, (E)-4-methoxy-2,2′-bipyridine-6-carbaldehyde oxime]
- proliferation of antigen stimulated CD4+ T cells (CD4^+ T cells): significantly suppressed the proliferation
- proliferation of Th2 clones (Th2 clones): substantially restricted the proliferation
- release of IL-4 (D10G4.1 Th2 clones): suppressed the release
- expression of B7-1 (J774): no major change
- expression of B7-2 (J774): increased the expression
